Common to all, as to assay type: functional, cell-based
Test [1] has as its system HCT-116. In words: Cytotoxicity against human HCT116 cells at 0.38 uM after 4 days by MTT assay. Background: Tetrazolium dyes change colour on reduction, which living cells bring about.
In the next test the test system is HT-29. Description: Cytotoxicity against human HT-29 cells at 2.6 uM after 4 days by MTT assay.
Test [2] deals with HCT-116. Description: Cytotoxicity against human HCT116 cells after 4 days by MTT assay. The note with it: HCT-116, 96 h.

The text below walks through data of ChEMBL document CHEMBL1151816, “Cytotoxic spirostane-type saponins from the roots of Chlorophytum borivilianum” (J Nat Prod, 2009).

The structures appear in SMILES notation. Active and inactive are the calls of the source. The rule behind the calls is not given here.

What is called IC50 is the concentration at which inhibition is half-maximal. A high value points to weaker potency in that assay.

As to `C=C1CC[C@@]2(OC1)O[C@H]1C[C@H]3[C@@H]4CC[C@H]5C[C@@H](O[C@@H]6O[C@H](CO)[C@H](O[C@@H]7O[C@H](CO)[C@@H](O)[C@H](O[C@@H]8OC[C@@H](O)[C@H](O)[C@H]8O)[C@H]7O[C@@H]7O[C@H](CO)[C@@H](O)[C@H](O)[C@H]7O)[C@H](O)[C@H]6O)[C@H](O)C[C@]5(C)[C@H]4CC[C@]3(C)[C@H]1[C@@H]2C`, the result with HCT-116 [1] and in the test on HT-29 was Active.

`CC(=O)O[C@H]1C(=O)[C@@]2(C)[C@H]([C@H](OC(=O)c3ccccc3)[C@]3(O)C[C@H](OC(=O)[C@H](O)[C@@H](NC(=O)c4ccccc4)c4ccccc4)C(C)=C1C3(C)C)[C@]1(OC(C)=O)CO[C@@H]1C[C@@H]2O` [PACLITAXEL] came in with an IC50 in the test with HCT-116 [2] of 1.1 nM.
